Where two headings read alike, the source gives them in different places.
Tests used:
[1] = system: vascular (5HT2) serotonin receptors; test: Inhibition of the pressor response to serotonin in pithed rats after intravenous test compound; format: in vivo, rat; settings: for effect on pressor response to serotonin: pithed rats
Procedure: Serotonin receptor antagonism was evaluated in pithed Wistar normotensive rats (Charles River, Inc. Portage, MI; 240-374 g) since responses in the pithed preparation are primarily direct vascular effects. Rats were anesthetized with Metofane® (methoxyflurane), carotid arterial and femoral venous catheters were implanted, and the trachea was cannulated. Rats were pithed and ventilated with room air (Cohen et al., supra, 1983; Cohen et al., supra, 1985). An equilibration period of 15 min. was observed before control measurements and i.v. administration of test compound or vehicle. Increasing intravenous doses of serotonin were injected 15 min. after intravenous administration of test compound or vehicle. […] By intravenous administration, 1-isopropyldihydrolysergic acid was only approximately one-third as potent as the ester in blocking vascular 5HT2 receptors.

[2] = system: vascular (5HT2) serotonin receptors; test: Duration of inhibition of vascular 5HT2 receptors in pithed rats (serotonin challenge 0.1 mg/kg i.v.); format: in vivo, rat; settings: for inhibition of vascular serotonin receptors: pithed rats; for Increase in mean blood pressure to serotonin: 0.1 mg/kg iv
Procedure: For these studies pithed rats were treated with vehicle or with the acid or the ester at a dose of 0.1 mg/kg, i.v. and challenged with serotonin (0.1 mg/kg i.v.) at various intervals for 2 hrs. after test compound or vehicle administration.

5HT2 receptors [3] = molecular target: T1, 5HT2 receptors (Rattus norvegicus, UniProt P14842); test: Antagonism of serotonin-induced contractions in the rat jugular vein (in vitro 5HT2 affinity); format: cell-based
T1 construct: Ring preparations of external rat jugular veins were used; tissue Harlan Sprague-Dawley, Inc., Cumberland, IN (animals); host or cells: external jugular vein rings of male Wistar rats
T1 sequence (P14842 whole entry): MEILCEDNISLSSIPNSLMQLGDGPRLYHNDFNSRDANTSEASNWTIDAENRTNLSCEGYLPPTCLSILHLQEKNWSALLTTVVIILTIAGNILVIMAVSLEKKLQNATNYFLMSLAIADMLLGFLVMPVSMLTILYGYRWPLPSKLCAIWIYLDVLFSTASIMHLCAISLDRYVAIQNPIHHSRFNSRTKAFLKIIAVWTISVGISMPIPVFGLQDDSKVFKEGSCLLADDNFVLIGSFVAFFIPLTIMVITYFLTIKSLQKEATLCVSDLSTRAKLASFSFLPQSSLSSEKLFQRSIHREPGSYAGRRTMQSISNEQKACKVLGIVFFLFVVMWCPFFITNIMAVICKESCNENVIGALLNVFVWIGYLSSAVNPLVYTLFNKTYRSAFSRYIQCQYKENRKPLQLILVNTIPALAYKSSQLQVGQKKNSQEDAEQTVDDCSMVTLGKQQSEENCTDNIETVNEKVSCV
Procedure: Male Wistar rats (150-300 g) (Harlan Sprague-Dawley, Inc., Cumberland, IN) were killed by cervical dislocation. Ring preparations of external rat jugular veins were used as detailed in [(Cohen et al., J. Pharm. and Exper. Therapeutics 227, 327-332 (1983); Cohen et al., J. Pharm. and Exper. Therapeutics 235, 319-323 (1985).]
Tissues were mounted in organ baths containing 10 ml of modified Krebs' solution of the following composition (millimolar concentrations): NaCl, 118.2; KCl, 4.6; CaCl2.2H2 O, 1.6; KH2 PO4, 1.2; MgSO4, 1.2; dextrose, 10.0; and NaHCO3, 24.8. Tissue bath solutions were maintained at 37° C. and aerated with 95% O2 -5% CO2. Isometric contractions were recorded as changes in grams of force on a Beckman Dynograph with Statham UC-3 transducers and microscale accessory attachments. Tissues were allowed to equilibrate at an initial optimum resting force for 1 to 2 hr before exposure to test compound.
After control contractile responses to serotonin were obtained in the jugular vein, vessels were incubated with appropriate concentrations of the test compound for 1 hr. Responses to serotonin were then repeated in the presence of test compound.
Apparent test compound dissociation constants (KB) were determined for each concentration of test compound according to the following equation: [formula] where (B) is the concentration of the test compound and dose ratio is the ED50 of the serotonin in the presence of the test compound divided by the control ED50. […] The data were also analyzed according to the procedure of Arunlakshana and Schild, Brit. J. Pharmacol. 14, 48-58 (1959) as previously described [Cohen et al., supra (1983)].

5HT2 receptors [4] = molecular target: T1, 5HT2 receptors; settings: cited from earlier work
[5] = system: vascular (5HT2) serotonin receptors; test: Duration of inhibition of vascular 5HT2 receptors in pithed rats (serotonin challenge 0.1 mg/kg i.v.); format: in vivo, rat; settings: 0.3 mg/kg iv
[6] = 15 minutes after test compound, serotonin 0.1 mg/kg iv
[7] = 120 minutes after test compound

COC1CCC(OC(=O)C2C[C@@H]3c4cccc5c4c(cn5C(C)C)C[C@H]3N(C)C2)CC1 (some centres unmarked) [I, reference compound]
effect on pressor response to serotonin ([1]; intravenous): dose-dependently inhibited | inhibition of vascular serotonin receptors ([2]; 0.1 mg/kg i.v.): greater inhibition of vascular serotonin receptors than the acid | Increase in mean blood pressure to serotonin [2, 6]: 7.3 mm Hg | Increase in mean blood pressure to serotonin ([2]; 30 minutes after test compound): 12.7 mm Hg | Increase in mean blood pressure to serotonin ([2]; 60 minutes after test compound): 23.9 mm Hg | Increase in mean blood pressure to serotonin ([2]; 90 minutes after test compound): 34.6 mm Hg | Increase in mean blood pressure to serotonin [2, 7]: 34.6 mm Hg

CC(C)n1cc2c3c(cccc31)C1C[C@@H](C(=O)O)CN(C)[C@@H]1C2 (some centres unmarked) [II, 1-isopropyldihydrolysergic acid]
potency as a 5HT2 antagonist in vivo ([1]; in vivo): relatively high potency | intravenous dose relative to the 4-methoxycyclohexyl ester to block vascular 5HT2 receptors ([1]; intravenous): three-fold higher | potency relative to the ester in blocking vascular 5HT2 receptors ([1]; intravenous administration): approximately one-third | effect on pressor response to serotonin ([1]; intravenous): dose-dependently inhibited | Kb (5HT2 receptors [3]; Schild plot abscissa intercept, rat jugular vein, read-out: pA2 (converted)): 151 nM | type of antagonism at 5HT2 receptors (5HT2 receptors [3]; jugular vein, Schild slope not different from negative unity): competitive antagonist | Kd (5HT2 receptors [3]; rat jugular vein): ~100 nM | affinity fold lower than the 4-methoxycyclohexyl ester (5HT2 receptors [3]; rat jugular vein): approximately 100 fold | Kb (5HT2 receptors [3]; rat jugular vein, serotonin contraction, apparent dissociation constant, n tissues in parentheses, read-out: -log KB ± SE(n) (converted)): 85.1 nM | ratio II/I (pA2) (5HT2 receptors [3]; ratio from pA2 of II and I): 170 | ratio II/I (KB) (5HT2 receptors [3]; ratio of KB of II to I): 78 | -Slope (5HT2 receptors [3]; slope of Schild plot, rat jugular vein): 1.29 | inhibition of vascular serotonin receptors ([2]; 0.1 mg/kg i.v.): marked block of vascular serotonin receptors | inhibition of serotonin vascular response 2 hrs. after administration ([2]; 0.1 mg/kg i.v., 2 hrs. after intravenous administration): marked inhibition of serotonin vascular response was still apparent | Increase in mean blood pressure to serotonin [2, 6]: 29.7 mm Hg | Increase in mean blood pressure to serotonin ([2]; 30 minutes after test compound): 27.8 mm Hg | Increase in mean blood pressure to serotonin ([2]; 60 minutes after test compound): 35.3 mm Hg | Increase in mean blood pressure to serotonin ([2]; 90 minutes after test compound): 41.7 mm Hg | Increase in mean blood pressure to serotonin [2, 7]: 48.1 mm Hg | affinity in vitro for 5HT2 receptors (background statement) (5HT2 receptors [4]): relatively low affinity | Increase in mean blood pressure to serotonin ([5]; 15 minutes after test compound): 3.2 mm Hg | Increase in mean blood pressure to serotonin ([5]; 30 minutes after test compound): 3.4 mm Hg | Increase in mean blood pressure to serotonin ([5]; 60 minutes after test compound): 4.2 mm Hg | Increase in mean blood pressure to serotonin ([5]; 90 minutes after test compound): 9.6 mm Hg | Increase in mean blood pressure to serotonin [5, 7]: 13.6 mm Hg
